Test results reported in US11874603B2, “Photoresist composition comprising amide compound and pattern formation methods using the same” (Rohm And Haas Electronic Materials Korea Ltd., priority 2021, dated 2024).

Assay: lipophilicity (log P) of the quencher
Assay type: physicochemical
Details: organic (oil) phase / aqueous phase partition
Source text: Lipophilicity, most commonly referred to as the Log P, represents the ratio at equilibrium of the concentration of a compound between two phases, an oil and a […] phase. The Log P value is a constant defined in the following manner: Log P=log 10 (Partition Coefficient) Partition Coefficient, P=[organic]/[aqueous] where the square bracket parenthesis “[ ]” indicates the concentration of solute in the organic and aqueous partition.

| logP | Structure (SMILES) |
| --- | --- |
| 5.6 | CCCCCCCCCCCC(=O)N(CC)CC [Quencher-H] |
| 10.2 | CCCCCCCCN(CCCCCCCC)C(=O)CCCCCCC [Quencher-B] |
| 6.69 | CCCCCCCCN(CCCCCCCC)C(C)=O [Quencher-I] |
| 10.8 | CCCCCCCCN(CCCCCCCC)CCCCCCCC [Quencher-A] |
